From ChEMBL document CHEMBL1128439, “Evaluation of cis- and trans-9- and 11-hydroxy-5,6,6a,7,8,12b-hexahydrobenzo[a]phenanthridines as structurally rigid, selective D1 dopamine receptor ligands” (J Med Chem, 1995)
Active and inactive are the calls of the source. No cut-off for these calls is given here.

What was measured:
D(1A) dopamine receptor [1] = molecular target: D(1A) dopamine receptor (Homo sapiens, UniProt P21728); test: Affinity towards Dopamine receptor D1
D(2) dopamine receptor [2] = molecular target: D(2) dopamine receptor (Homo sapiens, UniProt P14416); test: In vitro receptor binding affinity against Dopamine receptor D2
Rattus norvegicus [3] = species: Rattus norvegicus; test: Effect on cAMP synthesis in rat striatal membranes as increase above basal value at a concentration of 10 uM; type: functional; settings: Striatum, Membrane
D(2) dopamine receptor [4] = molecular target: D(2) dopamine receptor (Rattus norvegicus, UniProt P61169)
D(1A) dopamine receptor [5] = molecular target: D(1A) dopamine receptor (Rattus norvegicus, UniProt P18901)
Rattus norvegicus [6] = species: Rattus norvegicus; test: Effect on cAMP synthesis in rat striatal membranes as increase above basal value at a concentration of 10 uM; NS= no synthesis detected; type: functional; settings: Striatum, Membrane
Rattus norvegicus [7] = species: Rattus norvegicus; test: Effect on cAMP synthesis in rat striatal membranes as increase above basal value at a concentration of 10 uM in the presence of 1 uM of SCH 23390.; type: functional; settings: Striatum, Membrane

D(2) dopamine receptor (Rattus norvegicus, UniProt P61169), sequence (P61169 whole entry): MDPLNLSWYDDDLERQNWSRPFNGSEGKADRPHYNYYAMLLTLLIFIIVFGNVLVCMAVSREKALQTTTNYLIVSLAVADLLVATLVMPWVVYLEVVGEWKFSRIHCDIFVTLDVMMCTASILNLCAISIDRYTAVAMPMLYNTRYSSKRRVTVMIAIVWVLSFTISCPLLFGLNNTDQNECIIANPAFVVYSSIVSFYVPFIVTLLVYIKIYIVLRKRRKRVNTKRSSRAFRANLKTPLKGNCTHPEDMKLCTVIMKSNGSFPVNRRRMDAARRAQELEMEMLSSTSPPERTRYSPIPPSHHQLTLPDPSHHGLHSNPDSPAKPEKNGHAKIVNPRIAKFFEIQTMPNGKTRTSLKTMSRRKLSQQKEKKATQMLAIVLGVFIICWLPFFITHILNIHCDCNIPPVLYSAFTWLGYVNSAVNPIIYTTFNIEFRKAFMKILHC
D(1A) dopamine receptor (Rattus norvegicus, UniProt P18901), sequence (P18901 whole entry): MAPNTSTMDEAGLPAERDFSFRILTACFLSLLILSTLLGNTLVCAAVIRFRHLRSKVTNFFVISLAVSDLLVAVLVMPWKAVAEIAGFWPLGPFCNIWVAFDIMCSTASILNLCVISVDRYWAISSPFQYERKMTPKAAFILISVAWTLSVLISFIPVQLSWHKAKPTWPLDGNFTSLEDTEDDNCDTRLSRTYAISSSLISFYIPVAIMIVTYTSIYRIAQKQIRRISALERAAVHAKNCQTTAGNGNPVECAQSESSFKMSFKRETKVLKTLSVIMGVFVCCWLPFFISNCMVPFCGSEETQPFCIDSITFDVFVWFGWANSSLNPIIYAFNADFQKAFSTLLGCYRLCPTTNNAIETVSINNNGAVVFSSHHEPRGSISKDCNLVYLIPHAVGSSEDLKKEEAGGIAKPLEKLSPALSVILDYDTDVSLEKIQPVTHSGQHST
D(2) dopamine receptor (Homo sapiens, UniProt P14416), sequence (P14416 whole entry): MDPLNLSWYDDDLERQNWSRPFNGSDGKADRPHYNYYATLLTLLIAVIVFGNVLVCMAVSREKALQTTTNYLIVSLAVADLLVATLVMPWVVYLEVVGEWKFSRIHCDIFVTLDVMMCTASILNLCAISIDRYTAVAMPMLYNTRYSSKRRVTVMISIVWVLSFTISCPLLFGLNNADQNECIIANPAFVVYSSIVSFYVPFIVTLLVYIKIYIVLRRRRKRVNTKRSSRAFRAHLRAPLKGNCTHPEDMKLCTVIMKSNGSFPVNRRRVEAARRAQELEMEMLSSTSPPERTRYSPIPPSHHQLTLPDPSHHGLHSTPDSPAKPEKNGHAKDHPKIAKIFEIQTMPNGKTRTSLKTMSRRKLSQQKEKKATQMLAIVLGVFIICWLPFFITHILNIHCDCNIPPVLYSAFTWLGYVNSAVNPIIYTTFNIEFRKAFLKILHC
D(1A) dopamine receptor (Homo sapiens, UniProt P21728), sequence (P21728 whole entry): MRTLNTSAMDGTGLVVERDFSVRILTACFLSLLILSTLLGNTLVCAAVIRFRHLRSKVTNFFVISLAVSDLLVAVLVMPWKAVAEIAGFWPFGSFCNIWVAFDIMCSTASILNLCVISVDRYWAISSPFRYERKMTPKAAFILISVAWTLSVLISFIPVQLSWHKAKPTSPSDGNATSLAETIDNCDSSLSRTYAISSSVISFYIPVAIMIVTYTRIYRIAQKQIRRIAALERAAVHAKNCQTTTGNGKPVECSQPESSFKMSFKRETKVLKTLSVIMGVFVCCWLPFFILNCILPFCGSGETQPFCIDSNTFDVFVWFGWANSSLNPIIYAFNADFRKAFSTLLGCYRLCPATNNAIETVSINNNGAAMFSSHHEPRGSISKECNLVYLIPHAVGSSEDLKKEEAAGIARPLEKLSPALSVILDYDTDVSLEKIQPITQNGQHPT

Structure (SMILES)	IC50 (D(1A) dopamine receptor [1]) [µM]	IC50 (D(2) dopamine receptor [2]) [µM]	Increase (Rattus norvegicus [3]) [%]	IC50 (D(2) dopamine receptor [4]) [µM]	IC50 (D(1A) dopamine receptor [5]) [µM]	Increase (Rattus norvegicus [6])	Increase (Rattus norvegicus [7]) [%]
NC1CCc2cc(O)c(O)cc2[C@H]1c1ccccc1 (some centres not stated)	> 1	> 1					
NCCc1ccc(O)c(O)c1			100				
Oc1ccc2c(c1)[C@H]1c3ccccc3CN[C@@H]1CC2			15	0.631	0.102		
Oc1cccc2c1CC[C@H]1NCc3ccccc3[C@@H]21				2	2.9	inactive	
Oc1cccc2c1CC[C@H]1NCc3ccccc3[C@H]21				0.532	5.55		
CN1Cc2ccccc2[C@@H]2c3cc(O)c(Br)cc3CC[C@H]21				3	0.322	inactive	
CCCN1Cc2ccccc2[C@@H]2c3cc(O)ccc3CC[C@H]21				0.21	0.529		
CN1Cc2ccccc2[C@@H]2c3ccc(O)c(O)c3CC[C@H]21				0.121	0.955	inactive	
Oc1ccc2c(c1)[C@@H]1c3ccccc3CN[C@@H]1CC2				15.5	16.7	inactive	
CN1Cc2ccccc2[C@@H]2c3cc(O)ccc3CC[C@H]21			8	0.359	0.115		
Oc1cc2c(cc1O)[C@H]1c3ccccc3CN[C@@H]1CC2			103				1
